Test results as given in patent US8617562B2, “FOXM1 peptides and immunogenic compositions containing them” (OncoTherapy Science, Inc., priority 2009, dated 2013).
Entries after “also recorded” stand apart in the source; their conditions may differ. Square brackets hold non-standard residues; d marks the D form. Ends that are not written are not given here.

Legend:
[1] = test system: peptide-pulsed TISI cells; test: IFN-gamma ELISPOT assay on CTLs induced with FOXM1 peptides; type: cell-based, human; conditions: target cells pulsed with the peptide vs not pulsed, day 21 after 3rd stimulation
Text: Monocyte-derived dendritic cells (DCs) were used as antigen-presenting cells to induce cytotoxic T lymphocyte (CTL) responses against peptides presented on human leukocyte antigen (HLA). DCs were generated in vitro as described elsewhere (Nakahara S et al., Cancer Res 2003 Jul. 15, 63(14): 4112-8). Specifically, peripheral blood mononuclear cells (PBMCs) isolated from a normal volunteer (HLA-A*2402 positive) by Ficoll-Plaque (Pharmacia) solution were separated by adherence to a plastic tissue culture dish (Becton Dickinson) so as to enrich them as the monocyte fraction. The monocyte-enriched population was cultured in the presence of 1000 U/ml of granulocyte-macrophage colony-stimulating factor (R&D System) and 1000 U/ml of interleukin (IL)-4 (R&D System) in AIM-V Medium (Invitrogen) containing 2% heat-inactivated autologous serum (AS). After 7 days of culture, the cytokine-induced DCs were pulsed with 20 micro-g/ml of each of the synthesized peptides in the presence of 3 micro-g/ml of beta2-microglobulin for 3 hrs at 37 degrees C. in AIM-V Medium. The generated cells appeared to express DC-associated molecules, such as CD80, CD83, CD86 and HLA class II, on their cell surfaces (data not shown). These peptide-pulsed DCs were then inactivated by X-irradiation (20 Gy) and mixed at a 1:20 ratio with autologous CD8+ T cells, obtained by positive selection with CD8 Positive Isolation Kit (Dynal). These cultures were set up in 48-well plates (Corning); each well contained 1.5×10^4 peptide-pulsed DCs, 3×10^5 CD8+ T cells and 10 ng/ml of IL-7 (R&D System) in 0.5 ml of AIM-V/2% AS medium. Three days later, these cultures were supplemented with IL-2 (CHIRON) to a final concentration of 20 IU/ml. On days 7 and 14, the T cells were further stimulated with the autologous peptide-pulsed DCs. The DCs were prepared each time by the same way described above. CTLs were tested against peptide-pulsed TISI cells after the 3rd round of peptide stimulation on day 21 (Tanaka H et al., Br J Cancer 2001 Jan. 5, 84(1): 94-9; Umano Y et al., Br J Cancer 2001 Apr. 20, 84(8): 1052-7; Uchida N et al., Clin Cancer Res 2004 Dec. 15, 10(24): 8577-86; Watanabe T et al., Cancer Sci 2005 August, 96(8): 498-506; Suda T et al., Cancer Sci 2006 May, 97(5): 411-9).
(§1) Specifically, peptide-pulsed TISI (1×10^4 cells/well) was prepared as stimulator cells. Cultured cells in 48 wells were used as responder cells. IFN-gamma ELISPOT assay and IFN-gamma ELISA assay were performed under manufacture procedure.
CTLs for those peptides derived from FOXM1 were generated according to the protocols as described in “Materials and Methods”.

[2] = test system: peptide-pulsed TISI cells; test: IFN-gamma ELISA assay of CTL lines stimulated with FOXM1 peptides; type: cell-based, human; conditions: target cells pulsed with corresponding peptide vs without peptide pulse
Method: CTLs were expanded in culture using the method similar to the one described by Riddell et al. (Walter E A et al., N Engl J Med 1995 Oct. 19, 333(16): 1038-44; Riddell S R et al., Nat Med 1996 February, 2(2): 216-23). A total of 5×10^4 CTLs were suspended in 25 ml of AIM-V/5% AS medium with 2 kinds of human B-lymphoblastoid cell lines, inactivated by Mitomycin C, in the presence of 40 ng/ml of anti-CD3 monoclonal antibody (Pharmingen). One day after initiating the cultures, 120 IU/ml of IL-2 were added to the cultures. The cultures were fed with fresh AIM-V/5% AS medium containing 30 IU/ml of IL-2 on days 5, 8 and 11 (Tanaka H et al., Br J Cancer 2001 Jan. 5, 84(1): 94-9; Umano Y et al., Br J Cancer 2001 Apr. 20, 84(8): 1052-7; Uchida N et al., Clin Cancer Res 2004 Dec. 15, 10(24): 8577-86; Watanabe T et al., Cancer Sci 2005 August, 96(8): 498-506; Suda T et al., Cancer Sci 2006 May, 97(5): 411-9).
as §1
(§2) CTL activity of those CTL lines was determined by IFN-gamma ELISA assay (FIGS. 2a-d). […] Furthermore, CTL clones were established by limiting dilution from the CTL lines, and IFN-gamma production from CTL clones against target cells pulsed peptide was determined by IFN-gamma ELISA assay.

[3] = test system: peptide-pulsed TISI cells; test: IFN-gamma ELISA assay of CTL clones established by limiting dilution; type: cell-based, human; conditions: peptide-pulsed target cells vs not pulsed
Method: The dilutions were made to have 0.3, 1, and 3 CTLs/well in 96 round-bottomed micro titer plate (Nalge Nunc International). CTLs were cultured with 1×10^4 cells/well of 2 kinds of human B-lymphoblastoid cell lines, 30 ng/ml of anti-CD3 antibody, and 125 U/ml of IL-2 in a total of […] of AIM-V Medium containing 5% AS. 50 micro-1/well of IL-2 were added to the medium 10 days later so to reach a final concentration of 125 U/ml IL-2. CTL activity was tested on the 14th day, and CTL clones were expanded using the same method as described above (Uchida N et al., Clin Cancer Res 2004 Dec. 15, 10(24): 8577-86; Suda T et al., Cancer Sci 2006 May, 97(5): 411-9; Watanabe T et al., Cancer Sci 2005 August, 96(8): 498-506).
as §1, §2

[4] = test system: COS7 cells transfected with FOXM1 and HLA-A*2402; test: Specific CTL activity against target cells exogenously expressing FOXM1 and HLA-A*2402; type: cell-based, African green monkey
Text: The cDNA encoding an open reading frame of target genes or HLA-A*2402 was amplified by PCR. The PCR-amplified products were cloned into pCAGGS vector. The plasmids were transfected into COST, which is the target genes and HLA-A24 negative cell line, using lipofectamine 2000 (Invitrogen) according to the manufacturer's recommended procedures. After 2 days from transfection, the transfected cells were harvested with versene (Invitrogen) and used as the target cells (5×10^4 cells/well) for CTL activity assay.
The established CTL lines and clones raised against these peptides were examined for their ability to recognize target cells that endogenously express FOXM1 and HLA-A*2402 gene. […] COS7 cells transfected with either full length of FOXM1 genes or HLA-A*2402 were prepared as controls.

| Substance | IFN-gamma production of peptide-induced CTLs compared with the control [1] | IFN-gamma production of CTL lines compared with the control [2] | other results |
| --- | --- | --- | --- |
| SYMAmIQFAI (SYMA[code m]IQFAI) [SEQ ID NO: 16] | potent IFN-gamma production | potent IFN-gamma production | IFN-gamma production of CTL clones compared with the control ([3]; listed as FOXM1-A24-10-240): potent IFN-gamma production |
| VLQPsVKVPL (VLQP[code s]VKVPL) [SEQ ID NO: 30] | potent IFN-gamma production | – | – |
| RNMTIKTEL [SEQ ID NO: 7] | potent IFN-gamma production | – | – |
| RYLTLDQVF [SEQ ID NO: 1] | – | – | IFN-gamma production of peptide-induced CTLs compared with the control ([1]; listed as FOXM1-A24-9-316): not shown specific IFN-gamma production; also recorded: typical negative data of CTL response |
| IYTWIEDHF [SEQ ID NO: 2] | potent IFN-gamma production | potent IFN-gamma production | specific CTL activity against COS7 cells transfected with both FOXM1 and HLA-A*2402 ([4]; CTLs raised by the peptide as effector cells, listed as FOXM1-A24-9-262): potent CTL activity; also recorded: specific CTL activity; specific CTL activity against control COS7 cells expressing either HLA-A*2402 or FOXM1 ([4]; controls transfected with only one gene): no significant specific CTL activity; IFN-gamma production of CTL clones compared with the control ([3]; listed as FOXM1-A24-9-262): potent IFN-gamma production |
| PYSYmAMIQF (PYSY[code m]AMIQF) [SEQ ID NO: 31] | potent IFN-gamma production | potent IFN-gamma production | IFN-gamma production of CTL clones compared with the control ([3]; listed as FOXM1-A24-10-238): potent IFN-gamma production |
| KFPAGIKII [SEQ ID NO: 8] | potent IFN-gamma production | – | – |
| LTLDqVFKPL (LTLD[code q]VFKPL) [SEQ ID NO: 25] | potent IFN-gamma production | potent IFN-gamma production | – |
